Source: PMC11989212, “Experimental Conditions to Retrieve Intrinsic Cooperativity α Directly from Single Binding Assay Data Exemplified by the Ternary Complex Formation of FKBP12, MAPRE1 and Macrocyclic Molecular Glues” (International Journal of Molecular Sciences, 2025)
pEC50, pKd: −log10 of the molar value. Several values for one entry are separate records, joined by “and”; a condition that tells them apart may be missing. Equal entries are not always repeated. Where two headings read alike, the source gives them in different places.

Assays:
[1] = molecular target: FKBP12 in the presence of MAPRE1 (Homo sapiens, UniProt P62942+Q15691); experiment: Spectral shift target engagement assay, binding to FKBP12 in the presence of 10 μM MAPRE1 (ternary)
Chain of FKBP12 in the presence of MAPRE1 (P62942 whole entry): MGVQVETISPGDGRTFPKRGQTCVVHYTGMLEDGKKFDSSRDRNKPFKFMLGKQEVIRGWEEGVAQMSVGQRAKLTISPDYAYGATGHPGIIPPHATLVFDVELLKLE
Chain of FKBP12 in the presence of MAPRE1 (Q15691 whole entry): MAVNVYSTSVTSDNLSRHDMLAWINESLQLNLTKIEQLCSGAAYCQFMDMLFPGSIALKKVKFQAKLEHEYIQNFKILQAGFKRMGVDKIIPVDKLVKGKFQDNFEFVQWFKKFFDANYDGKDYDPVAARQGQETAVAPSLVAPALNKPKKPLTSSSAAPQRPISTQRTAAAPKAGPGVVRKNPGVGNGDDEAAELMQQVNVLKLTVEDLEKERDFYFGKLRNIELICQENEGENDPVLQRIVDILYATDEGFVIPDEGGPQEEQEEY
Description: (§1) Our method of choice is the spectral shift method, which monitors binding events on the target isothermally and in equilibrium via an environment-sensitive near-infrared fluorophore. In the case of target engagement, either the proximity of the ligand towards the dye or structural changes occurring in the target as a result of binding lead to a change in the chemical environment of the fluorophore. Those changes affect the physiochemical properties of the reporter fluorophore and translate into either blue or red shifts (or peak broadening) of emission peaks upon ligand binding, which can be sensitively monitored by simultaneously recording the fluorescence at two wavelengths (i.e., at 650 nm and 670 nm). Calculating the ratio between the two fluorescence channels then allows to monitor subtle emission shifts that occur as a result of target engagement. Affinity measurements can then be performed by recording the spectral shift as a function of ligand concentration.
(§2) Binding studies through FKBP12: To monitor the binding of R,--SLF-11 by the stronger binding FKBP12 in the absence and in the presence of 10 μM MAPRE1 via %Cbound, binary and %Cbound, ternary, respectively, the concentration of reversibly NTA-labeled FKBP12 was limited to [Ctot] = 40 nM. […] In contrast to the experimental setup in the previous two binding experiments with monitoring through the weaker binding protein MAPRE1, where the applied protein concentrations were optimally chosen, this is not the case for the binding experiment through the stronger binder FKBP12. First of all, the applied excess of T with [Ttot] = 10 μM is roughly 20000-fold off of the proposed 100 times KT,1 threshold, which would correspond to 180 mM. Only under such excess conditions of T can the equilibrium of forming TL under the constraint that all ligand L is bound to T be reached to ensure that [Ltot] approaches the “ligand” concentration [TL]. […] If KC,2 is sufficiently high, the 20 nM deviation to correct for the protein concentration could be neglected. However, the resulting calculated value for KC,2 is 0.023 nM, accounting for the cooperativity α = 10,405 and KC,1 = 234 nM as derived by the MAPRE1 experiment. This value is far below the applied protein concentration of [Ctot] = 40 nM and makes it infeasible to estimate KC,2 from the EC50 of the %Cbound, ternary curve. Consequently, the EC50 shifts, meaning the apparent cooperativity, from monitoring the binding by the stronger binding protein C are diverging from the underlying intrinsic cooperativity α. […] The deviation of calculated (254 nM/24.2 nM = 10.5) and measured apparent cooperativity (254 nM/66 nM = 3.8) can be explained by a negative cooperativity induced by the His6-NTA tag of FKBP12. Studies to lower [Ctot] and identify a better position for the spectral shift tag on FKBP12 are ongoing (Figure 6a).
(§3) His-tagged FKBP12 was labeled using the His-Tag Labeling Kit RED-tris-NTA 2nd Generation (MO-L018; NanoTemper Technologies GmbH). The affinity between NTA dye and the His-tag of FKBP12 was determined as 7 nM. MAPRE1 was labeled using the Protein Labeling Kit RED-NHS 2nd Generation (MO-L011; NanoTemper Technologies GmbH). In brief, 10 µM of MAPRE1 was incubated with a 3-fold molar excess of fluorophore for 30 min. The unreacted fluorophore was removed by performing a size exclusion purification (B-column). Collecting the protein fraction yielded 1.8 µM labeled MAPRE1, with a degree of labeling of 0.8, as determined on a Nanodrop.
(§4) A 1:2 dilution series of all compounds (starting from the 10 mM stock concentration) was prepared in pure DMSO. Each concentration was diluted 25-fold with assay buffer (20 mM HEPES, pH 7.4, 150 mM NaCl, 1 mM DTT (all from Carl Roth, Karlsruhe, Germany), and 0.01% Pluronic F-127 (Sigma Aldrich, Taufkirchen, Germany)). Next, 10 µL from each of the prepared ligand dilutions was transferred into an empty well on a Dianthus Microwell Plate (DI-P001A). […]

[2] = molecular target: T1, MAPRE1 in the presence of FKBP12 (Homo sapiens, UniProt P62942+Q15691); experiment: Spectral shift target engagement assay, binding to MAPRE1 in the presence of 10 μM FKBP12 (ternary)
T1 construct: His-tag (N)
T1 sequence (Q15691 whole entry): as above
T1 sequence (P62942 whole entry): as the sequence (P62942 whole entry) above
Description: as §1
Binding study through MAPRE1: MAPRE1 was labeled via lysines using an NHS-conjugated dye. The final concentration of MAPRE1NHS (referring to [Ttot]) was 5 nM. Compounds could be titrated up to a concentration of 200 μM (referring to [Ltot]). […] However more accuracy could only be achieved at higher ligand concentrations—ideally at full target saturation. However, this was experimentally infeasible due to assay conditions (i.e., the requirement of maintaining a certain DMSO concentration or avoiding solubility issues of the ligand). Although the determined KT,1 values of binding to MAPRE1 are only approximations, their relative ranking reflects the underlying differences in the affinity of the ligands L to MAPRE1. Performing these experiments in duplicates confirmed the high signal-to-noise ratio, i.e., there was no significant deviation between the two curves, indicating a high accuracy of the interpolated EC50 values. Due to the low [Ttot] = 5 nM, this value coincides with KT,1 (1.8 mM − 0.005 mM/2 ≈ 1.8 mM). […] Consequently, KT,2 corresponds to 173 nM and not 177.5 nM.
as §3
A 1:2 dilution series of all compounds (starting from the 10 mM stock concentration) was prepared in pure DMSO. Each concentration was diluted 25-fold with assay buffer (20 mM HEPES, pH 7.4, 150 mM NaCl, 1 mM DTT (all from Carl Roth, Karlsruhe, Germany), and 0.01% Pluronic F-127 (Sigma Aldrich, Taufkirchen, Germany)). Next, 10 µL from each of the prepared ligand dilutions was transferred into an empty well on a Dianthus Microwell Plate (DI-P001A). Another 10 µL of 2-fold concentrated labeled protein (either in the absence or the presence of 20 µM counter protein, both in assay buffer then yielded the final assay concentrations. Interaction measurements were prepared in duplicates for each condition. For binary interactions of compounds with MAPRE1, a final target concentration of 5 nM and a highest ligand concentration of 50 µM was prepared. For ternary interactions of compounds and MAPRE1 in the presence of 10 µM unlabeled FKBP12, the highest ligand concentration was increased to 200 µM, the highest concentration achievable while maintaining a constant 2% DMSO concentration. For all interactions measured via FKBP12, the target was prepared at a final concentration of 40 nM, supplemented with 5 nM NTA fluorophore. […]

[3] = molecular target: FKBP12 (Homo sapiens, UniProt P62942); experiment: Spectral shift target engagement assay, binary binding to FKBP12; conditions: 40 nM FKBP12-NTA
Chain of FKBP12 (P62942 whole entry, species assumed): as the sequence (P62942 whole entry) above
Description: as §1, §2, §3, §4

C=C1CCN2C(=O)COc3cccc(c3)C(CCc3ccc(OC)c(OC)c3)OC(=O)C3CCCCN3C(=O)C(=O)C(C)(C)COC(=O)C(CN)NC(=O)C2C1 (stereo not drawn) [R,S-SLF-7]
pEC50 ([1]; 40 nM FKBP12-NTA, 10 μM MAPRE1, read-out: EC50 of the %Cbound, ternary curve (measured)): 6.96
pEC50 ([1]; calculated with the model using α from MAPRE1 binding, read-out: calc EC50 of the %Cbound, ternary curve): 7.32
pEC50 ([2]; 5 nM MAPRE1-NHS, 10 μM FKBP12, read-out: EC50 of the %Tbound, ternary curve): 5.70
Ratio [Ctot]/KC,1 ([2]; [Ctot] = 10 μM FKBP12): 60
100 × (EC50 %Tbound ternary − 0.5 [Ttot] − KT,2)/KT,2 ([2]; difference between EC50 of the %Tbound, ternary curve and KT,2, [Ttot] = 5 nM): 2% and 2.1%
Intrinsic cooperativity α ([2]; from KC,1, KT,1 and EC50 of the %Tbound, ternary curve with the mathematical model, [Ctot] = 10,000 nM, [Ttot] = 5 nM): 237
pKd ([2]; ternary Kd, model-based ([CL] at [Ltot] = EC50), read-out: KT,2): 5.71
pEC50 ([3]; no MAPRE1, read-out: EC50 of the %Cbound, binary curve): 6.73
pKd ([3]; KC,1 = EC50 − [Ctot]/2): 6.78
